In patent US10717714B2, “Reactive ultraviolet absorber and application thereof” (CHITEC TECHNOLOGY CO., LTD., priority 2017, dated 2020):

Assay: Thermal stability test (Gardner color of DMF solution before and after 150° C. for 3 hours)
Assay type: physicochemical
Conditions: for Color (Gardner color scale), after thermal processing for 3 hours / Color (Gardner color scale), initial: 2 g in 10 ml DMF; for Color (Gardner color scale), after thermal processing for 3 hours: 150° C. for 3 hours; for Color (Gardner color scale), initial: before thermal processing; for Change in color (delta color): before and after heating at 150° C. for 3 hours
Description: 2 g each of the reactive UV absorber I of the present invention, the comparative reactive UV absorber A, and the comparative reactive UV absorber B represented by the following formula B (an embodiment of reactive UV absorber with formula (IIIb) disclosed by U.S. Pat. No. 5,459,222) were respectively dissolved in 10 ml of dimethylformamide (DMF), and the obtained dimethylformamide solutions were subjected to thermal processing at 150° C. for 3 hours. The Gardner color scales of the solutions were measured by colorimeter (Lovibond PFXi-195).

Row | SMILES | Color (Gardner color scale), after thermal processing for 3 hours | Color (Gardner color scale), initial | Change in color (delta color)
1 | CC(C)(C)c1cc(CCC(=O)N(CCO)CCO)cc(-n2n3c4ccccc4n23)c1O [Comparative reactive UV absorber A] | 9.1 | 5.4 | 3.7
2 | Cc1cc(CN(CCO)CCO)c(O)c(-n2n3c4ccccc4n23)c1 [Comparative reactive UV absorber B] | 7.2 | 4.2 | 3.0
